Reference: paper PMC7433010, “Exploration of multi‐target effects of 3‐benzoyl‐5‐hydroxychromen‐2‐one in Alzheimer’s disease cell and mouse models” (Aging Cell, 2020)

Tests used:
[1] = tested on: NQO1; assay: Western blot of NQO1 in ∆K280 TauRD‐DsRed SH‐SY5Y cells; format: cell-based, human; settings: 1 µM; induced untreated 79%, uninduced 100%
Method: (§1) Total proteins from ∆K280 TauRD-DsRed SH-SY5Y cells were obtained using a RIPA buffer containing 50 mM Tris-HCl (pH8.0), 150 mM NaCl, 2 mM EDTA (pH8.0), 50 mM NaF, 0.1% SDS, 0.5% sodium deoxycholate, 1% NP40, and a protease inhibitor cocktail (Sigma-Aldrich). After sonication and sitting on ice for 20 min, the lysates were centrifuged at 14,000 × g for 30 min at 4°C. Protein concentrations were determined using a protein assay kit (Bio-Rad, Hercules, CA, USA), with albumin as a standard. Total proteins (20 µg) were electrophoresed on 10% or 12% SDS-polyacrylamide gel and transferred onto polyvinylidene difluoride (PVDF) membranes (Sigma-Aldrich) through reverse electrophoresis. […] Subsequently, immune complexes were detected using a horseradish peroxidase-conjugated goat anti-mouse or goat anti-rabbit IgG antibody (1:5000; GeneTex, Irvive, CA, USA) and a chemiluminescent substrate (Millipore).

[2] = tested on: CREB; assay: Western blot of CREB in ∆K280 TauRD‐DsRed SH‐SY5Y cells; format: cell-based, human; settings: 1 µM; induced untreated 82%, uninduced 100%
Method: To knock down CREB expression in ∆K280 TauRD-DsRed SH-SY5Y cells, lentiviral short hairpin RNA (shRNA) targeting CREB (TRCN0000226466), NRF2 (TRCN0000007558), and a negative control scrambled (TRC2.Void) were obtained from National RNAi Core Facility, IMB/GRC, Academia Sinica, Taipei, Taiwan. On day 1, cells were plated on 6-well plates (for protein analysis) or 24-well plates (for neurite outgrowth analysis) in the presence of retinoic acid as described. On the second day, the cells were infected with lentivirus (multiplicity of infection: 3) in medium with polybrene (8 µg/mL; Sigma-Aldrich). […] On day 9, the cells were collected for NRF2, CREB, pCREB, and cleaved CASP3 protein analysis or analyzed for neurite outgrowth as described.
as §1, with “After sonication and sitting on ice for 20 min, the lysates were centrifuged at 14,000 × g for 30 min at 4°C.” left out, “standard.” for “standard. Total proteins (20 µg) were electrophoresed on 10% or 12% SDS-polyacrylamide gel and transferred onto polyvinylidene difluoride (PVDF) membranes (Sigma-Aldrich) through reverse electrophoresis.”

[3] = tested on: ERK1/2; assay: Western blot of ERK1/2 in ∆K280 TauRD‐DsRed SH‐SY5Y cells; format: cell-based, human
Method: as §1
Figure S4. ΔK280 TauRD-DsRed SH-SY5Y cells. […] On day 9, neurite outgrowth and caspase 3 activity were measured. In addition, expression of HSPB1, NRF2, and CREB pathways were assessed. (b) Relative AKT, pAKT, ERK, and pERK protein levels analyzed through immunoblotting. […]

[4] = tested on: STZ‐induced hyperglycemic 3 × Tg‐AD mice; assay: Open‐field test in STZ‐treated 3 × Tg‐AD mice; format: in vivo, mouse; settings: day 24; 40 mg/kg i.p.
Method: (§2) Mice harboring APPSwe, PS1M146V, and […] transgenes (3×Tg-AD) (Oddo et al., 2003) were purchased from the Jackson Laboratory (004807; Bar Harbor, ME, USA). Six-month-old male homozygous 3×Tg-AD mice were group housed at 20–25°C and 60% relative humidity under a daily 12-h light/12-h dark cycle, with assess to food and water ad libitum. Mice were randomly divided into 3 groups: – streptozocin (STZ), STZ, and STZ/LM-031 (n = 10 per group). STZ-induced hyperglycemia was used to accelerate the development of AD phenotype (Chen et al., 2014). Briefly, the mice were fasted for 12 h each day prior to intraperitoneal (i.p.) injection of STZ ([…]; Sigma-Aldrich) or vehicle (0.1 M sodium citrate pH4.5) for 4 times (days 2, 3, 9, and 10) (Chen et al., 2019). Mouse body weight was measured and blood glucose level was measured on days 1, 8, 15, 22, and 29 using a blood glucose meter (Bioland Technology, Taipei, Taiwan). LM-031 (40 mg/kg) or vehicle (DMSO:Cremophor EL:0.9% saline = 1:2:7) was intraperitoneally injected every day for 22 days from days 15 to 36. All animal procedures were ethically approved by the Institutional Animal Care and Use Committee of National Taiwan Normal University, Taipei, Taiwan (Permit Number: 103002) and were conducted in compliance with the ARRIVE (Animal Research: Reporting In Vivo Experiments) guidelines. […]

[5] = tested on: pCREB; assay: Western blot of pCREB in hippocampus of STZ‐treated 3 × Tg‐AD mice; format: in vivo, mouse; settings: STZ 68%, – STZ 100%
Method: In addition, isolated hippocampal and cortex tissues from transgenic mice (as described in Animal studies) were homogenized and extracted proteins (10 µg) were separated and blotted. After being blocked, the membranes were probed with antibody against mouse NRF2 (1:500; Sigma-Aldrich), CREB (1:500; Millipore), pCREB (S133) (1:1000; Millipore), or GAPDH (1:1000; MDBio), and the immune complexes detected as described above.
as §2, with “Taiwan).” for “Taiwan). LM-031 (40 mg/kg) or vehicle (DMSO:Cremophor EL:0.9% saline = 1:2:7) was intraperitoneally injected every day for 22 days from days 15 to 36. All animal procedures were ethically approved by the Institutional Animal Care and Use Committee of National Taiwan Normal University, Taipei, Taiwan (Permit Number: 103002) and were conducted in compliance with the ARRIVE (Animal Research: Reporting In Vivo Experiments) guidelines.”

For O=C(c1ccccc1)c1cc2c(O)cccc2oc1=O [LM‐031, 3‐benzoyl‐5‐hydroxychromen‐2‐one], the NQO1 protein level [1] was 94%, the CREB protein level [2] was 122% and the ERK1/2 level [3] was “not notably affected”. The “open‐field distance traveled and inactive time” value [4] was “No significant change” and the “pCREB level in hippocampus” value [5] was 110%.
